In US20190292494A1, “STABILIZATION OF ENZYMES IN COMPOSITIONS” (BASF SE, priority 2016, published 2019):
Entries after “also recorded” stand apart in the source; their conditions may differ. Read-outs that look alike come from different tables or passages of the source.

Key:
Type in all cases: biochemical
[1] = molecular target: T1, protease according SEQ ID No: 1 (Lederbergia lenta, UniProt P29599, R99E); details: for protease activity: 2.3% (w/w) diol, 4.4 μM 4-FPBA, 4.8 mM Suc-AAPF-pNA, 16 nM protease, pH 7.5, activity with 4-FPBA only = 100%
Method: (§1) Proteolytic activity of proteases has been measured using succinyl-Ala-Ala-Pro-Phe-p-nitroanilide (Suc-AAPF-pNA, short AAPF) as substrate, wherein pNA is cleaved from the substrate molecule by proteolytic cleavage, resulting in release of yellow color of free pNA which was quantified by measuring OD405.
(§2) If not indicated otherwise, enzymatic activity was measured at 30° C.
50 mM phosphate buffer (pH 7.5), 4.4 μM 4-FPBA, 4.8 mM Suc-AAPF-pNA, and 16 nM protease according SEQ ID No: 1 with 2.3% w/w diol or without diol.
The protease activity was measured in presence of the Suc-AAPF-pNA substrate and the 4-FPBA only, which gives the 100% value in Table A.
The protease activity was also measured in the presence of AAPF-pNA substrate, 4-FPBA and 2.3% diol.

[2] = molecular target: T1, protease according SEQ ID No: 1; details: for protease activity: activity without BBA and diol = 100%
Method: as §1, §2
50 mM phosphate buffer (pH 7.5), 137 μM BBA, 4.8 mM Suc-AAPF-pNA, and 16 nM protease according SEQ ID No: 1 with 135 mM diol or without diol.
The protease activity was measured in presence of the Suc-AAPF-pNA substrate and in the absence of BBA and diol, which gives the 100% value in Table B.
The protease activity was measured in presence of the Suc-AAPF-pNA substrate and BBA, which gives the stabilization of protease by BBA—see Table C-I.
The protease activity was then measured in presence of the Suc-AAPF-pNA substrate and diol (without BBA), which gives the stabilization of protease by diol—see Table C-II.
The protease activity was then measured in presence of the Suc-AAPF-pNA substrate and BBA and diol, which gives the stabilization of protease by BBA and diol—see Table C-III.

[3] = molecular target: protease according to SEQ ID No: 1 (Lederbergia lenta, UniProt P29599, R99E); experiment: Storage stability of protease at 45° C. with diol alone (proteolytic activity, Suc-AAPF-pNA); details: no boron compound; for stabilization of protease by diol alone during storage (in words): storage at 45° C., 20-50% w/w diol
Method: as §1
To test the effect of diol alone towards the storage stability of proteases, a protease according to SEQ ID No: 1 was stored at 45° C. with varying concentrations of Propane-1,2-diol and Pentane-1,2-diol as indicated in Table B. 4% active protease according to SEQ ID No: 1 was present before storage for the assessment of its changes in proteolytic activity during storage.
Proteolytic activity was measured in the presence of 4.8 mM Sus-AAPF-pNa. As buffering system 50 mM phosphate buffer was used (pH 7.5). Before storage (time=0), the protease activity measured was set 100%.

[4] = molecular target: T1, protease according SEQ ID No: 1; experiment: Mixtures of diols with 4-FPBA: protease activity (Suc-AAPF-pNA)
Method: as §1, §2
50 mM phosphate buffer (pH 7.5), 4.4 μM 4-FPBA, 4.8 mM Suc-AAPF-pNA, and 16 nM protease according SEQ ID No: 1 with one or two diols.
The protease activity was measured in presence of the Suc-AAPF-pNA substrate and 4-FPBA and one or two diols, which gives the stabilization of protease by 4-FPBA and one or two diols—see Table D.
The protease activity in presence of the Suc-AAPF-pNA substrate and 4-FPBA only is set 100%.

T1 sequence (P29599 whole entry R99E): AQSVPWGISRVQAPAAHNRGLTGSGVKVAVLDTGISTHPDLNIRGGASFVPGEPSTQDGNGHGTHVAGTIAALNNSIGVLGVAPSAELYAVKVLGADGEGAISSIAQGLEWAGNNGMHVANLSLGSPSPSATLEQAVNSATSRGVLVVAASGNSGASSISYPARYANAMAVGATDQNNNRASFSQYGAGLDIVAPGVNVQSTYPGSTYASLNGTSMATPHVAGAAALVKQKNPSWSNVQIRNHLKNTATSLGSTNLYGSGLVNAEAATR
protease according to SEQ ID No: 1, sequence (P29599 whole entry R99E): as above

CCCC(O)CO (centres unmarked) [Pentane-1,2-diol, pentane-1,2-diol]
inhibitory effect towards proteolytic activity (in words) ([1]; diol added to 4-FPBA, compared to the other diols used): strong inhibitory effect
stabilization of protease by diol in the presence of BBA (in words) ([2]; 135 mM diol with 137 μM BBA): best increasing effect on stabilization of protease; also recorded: synergistic stabilization
inhibitory effect towards proteolytic activity (in words) ([2]; diol alone (135 mM, without BBA), of the diols tested): best inhibitory effect
stabilization of protease by diol alone during storage (in words) [3]: does not stabilize the protease, but rather destabilizes the protease
stabilization of protease in the presence of 4-FPBA (in words) ([4]; of the diols tested, with 4-FPBA): stabilizes protease best

CC(O)CO (centres unmarked) [Propane-1,2-diol, propane-1,2-diol]
protease activity [1]: 91%
protease activity ([2]; 135 mM diol with 137 μM BBA): 40%
protease activity ([2]; 135 mM diol, without BBA): 94%
proteolytic activity before and after storage ([3]; 20% w/w diol, 1 day at 45° C.): 82%
proteolytic activity before and after storage ([3]; 20% w/w diol, 3 days at 45° C.): 64%
proteolytic activity before and after storage ([3]; 20% w/w diol, 7 days at 45° C.): 46%
proteolytic activity before and after storage ([3]; 20% w/w diol, 14 days at 45° C.): 30%
proteolytic activity before and after storage ([3]; 20% w/w diol, cero (before storage, set 100%)): 100%
proteolytic activity before and after storage ([3]; 30% w/w diol, 1 day at 45° C.): 92%
proteolytic activity before and after storage ([3]; 30% w/w diol, 3 days at 45° C.): 80%
proteolytic activity before and after storage ([3]; 30% w/w diol, 7 days at 45° C.): 62%
proteolytic activity before and after storage ([3]; 30% w/w diol, 14 days at 45° C.): 47%
proteolytic activity before and after storage ([3]; 30% w/w diol, cero (before storage, set 100%)): 100%
proteolytic activity before and after storage ([3]; 50% w/w diol, 1 day at 45° C.): 94%
proteolytic activity before and after storage ([3]; 50% w/w diol, 3 days at 45° C.): 92%
proteolytic activity before and after storage ([3]; 50% w/w diol, 7 days at 45° C.): 79%
proteolytic activity before and after storage ([3]; 50% w/w diol, 14 days at 45° C.): 66%
proteolytic activity before and after storage ([3]; 50% w/w diol, cero (before storage, set 100%)): 100%
stabilization of protease by diol alone during storage (in words) [3]: stabilize the protease increasingly
protease activity ([4]; Propane-1,2-diol 120 mM, Pentane-1,2-diol 0 mM, 4.4 μM 4-FPBA, 4-FPBA only = 100%): 91%

OCCO [Ethylen-1,2-glycol, ethane-1,2-diol]
protease activity [1]: 54%
protease activity ([2]; 135 mM diol with 137 μM BBA): 43%
protease activity ([2]; 135 mM diol, without BBA): 97%

benzene boronic acid [BBA]
protease activity ([2]; 137 μM BBA, no diol): 66%
